According to paper PMC7127579 (Febs Letters, 2006):

Molecular target: T1, FhePrx (recombinant 2-Cys peroxiredoxin of Fasciola hepatica) (Fasciola hepatica, UniProt P91883)
T1 sequence (P91883 1-194): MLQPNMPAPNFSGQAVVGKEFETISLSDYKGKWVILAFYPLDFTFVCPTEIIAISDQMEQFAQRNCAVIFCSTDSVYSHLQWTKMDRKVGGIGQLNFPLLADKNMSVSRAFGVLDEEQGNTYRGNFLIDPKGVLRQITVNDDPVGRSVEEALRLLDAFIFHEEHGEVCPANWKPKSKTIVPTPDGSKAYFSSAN
Assay: coupled NADPH oxidation assay
Format: biochemical
Conditions: E. coli thioredoxin and thioredoxin reductase, 0.25 mM NADPH, 1 mM EDTA, 5 mM potassium phosphate pH 7.0, 22 °C

| Compound | Km |
| --- | --- |
| CC(C)(C)OO [t-Butyl hydroperoxide] | 18.6 µM |
| CC(C)(OO)c1ccccc1 [Cumene hydroperoxide] | 12.7 µM |
